Measured values reported in publication PMC8708875 (Pharmaceutics, 2021).

Legend:
[1] = test system: Akt phosphorylation (pAkt, S473); experiment: Akt phosphorylation by Western blotting in differentiated C2C12 cells; format: cell-based, mouse; conditions: peptides 100 µM, insulin 100 nM, Western blot, three independent experiments
Experimental: C2C12 cells were used as a well-described model of skeletal muscle to evaluate the effect of peptides in gene expression, cell signaling, and glucose uptake. These cells were kindly provided by Prof. Patricia Brum, School of Physical Education and Prof. Anselmo Moriscot, Biomedical Science Institute, University of São Paulo, São Paulo, Brazil. C2C12 cells were cultured and maintained in high glucose Dulbecco’s modified Eagle’s medium (DMEM; Thermo Fisher Scientific, São Paulo, SP, Brazil) supplemented with 10% fetal bovine serum (FBS), 100 U/mL penicillin, and […] streptomycin in a humidified atmosphere of 5% CO2 at 37 °C. The cells were used in low pass (between passages 2 and 4) for all experiments to maintain the potential for differentiation of cultures. […]
Western blotting experiments were performed to evaluate the expression levels of specific proteins. […] Western blot bands were visualized with Super-Signal West Pico Chemiluminescent substrate (Thermo Scientific) using the ChemiDoc™ MP Imaging System (BioRad, Hercules, CA, USA), and quantified using ImageJ 1.49 software. All results are expressed as the means ± standard error of the mean (SEM). […] Data were statistically analyzed with GraphPad Prism software (GraphPad Software Inc, San Diego, CA, USA). […]

C57BL/6N (WT) mice = format: in vivo, mouse; conditions: WT mice fasted 12 h, glucose 2 g/kg ip at time zero
Experimental: In vivo experiments were conducted with male C57BL/6N (WT) mice 12–16 weeks-old (University of São Paulo Medical School Animal Facility, SP, Brazil). Mice were maintained in individual ventilated cages (Amresco, SP, Brazil), under standardized conditions with an artificial 12 h dark–light cycle, with free access to standard chow (Nuvital Nutrientes S.A., Colombo, PR, Brazil) and drinking water ad libitum. The number of animals used was the minimum necessary to obtain statistically significant results and they were maintained and used in accordance with the guidelines of the National Council for Control of Animal Experiments (CONCEA), following international norms of animal care and maintenance. Thus, we hereby state that all experimental protocols were previously approved by University of São Paulo Ethic committee councils from Biomedical Science Institute (approval number for mice experimentation ICB/USP 22/2017).
WT mice were fasted for 12 h and blood samples were taken before and at 15, 30, 60, 90, and 120 min after the intraperitoneal (ip) injection of 2 g/kg glucose. Glycemia was measured using a glucometer (Accu-Check Performa, ROCHE, São Paulo, Brazil). Peptides were evaluated to affect glucose uptake either after ip or oral (by gavage) administration. After 20 min glucose was administrated (blood glucose levels reached 400 mg/dL), animals received ip or oral administration of either saline, insulin (0.75 IU/kg), or peptide (Ric2 or Ric4; 600 µg/kg). In addition, a group of animals received oral administration of either water or Ric2 or Ric4 (600 µg/kg). Glycemia was measured as indicated following vehicle, insulin, or peptide administration.

in vitro = in vitro ADME, mouse; conditions: WT mice liver or kidney crude extracts; fragments sequenced by mass spectrometry after HPLC; data not shown
Experimental: Peptide hydrolyses were analyzed by reverse phase liquid chromatography (HPLC) using a C18 µBond-pak column (4.6 × 250 mm; Millipore Corp.) with a linear gradient of 5–65% acetonitrile in 0.1% TFA for 20 min at a flow rate of 1 mL/min, and absorbance monitored at a wavelength of 214 nm, as previously described. Cleaved peptide bonds were identified by mass spectrometry sequencing after isolating the cleavage fragments manually after HPLC, as previously described (data not shown). Control enzyme assays were conducted using bradykinin ([…]; 50 µM) as a standard substrate.

Substance	phosphorylation of Akt (pAkt over total Akt) [1]	blood glucose levels in GTT, ip administration (C57BL/6N (WT) mice; peptide 600 µg/kg ip 20 min after glucose)	blood glucose levels in GTT, oral administration (C57BL/6N (WT) mice; peptide 600 µg/kg orally by gavage)	initial enzymatic cleavage site (in vitro)
Insulin	increased	–	–	–
LASVSTVLTSKYR [Ric4, intracellular peptide derived from hemoglobin alpha subunit, last 13 C-terminal amino acids]	activated	rapidly induced a decrease in blood glucose levels	decreased blood glucose levels	Leu8-Thr9 peptide bond
